{
  "source": "paper PMC11356821",
  "about": "“A New Class of Benzo[b]thiophene-chalcones as Cholinesterase Inhibitors: Synthesis, Biological Evaluation, Molecular Docking and ADME Studies” (Molecules, 2024)",
  "key": {"[1]": {"tested_on": "SH-SY5Y cells", "assay": "Cell viability, MTT assay", "type": "cell-based", "settings": "24 h, at IC50 concentrations", "description": "Therefore, their impact on the viability of SH-SY5Y cells (neuroblastoma cell line) has been studied. For cell viability experiments, the compounds were tested at different concentrations (0, 30, 50, 100 and 200 μM) for 24 h and analyzed using the MTT test.\nHuman neuroblastoma cell line SH-SY5Y was obtained from ICLC Cell bank (cat. # HTL95013). The cells were cultured in high-glucose DMEM supplemented with 10% fetal bovine serum, 100 units/mL of penicillin and 100 µg/mL of streptomycin (all from Gibco, Life sciences; Thermo Fisher Scientific, Waltham, MA, USA) and maintained at 37 °C in a humidified atmosphere of 5% CO2 and 95% air. Cell viability was detected by the colorimetric 3-(4,5 dimethylthiazol-2-yl)-2,5-diphenyltetrazolium bromide (MTT) assay, as previously described, with minor modifications. Briefly, 1.5 × 10^4 cells/well were seeded in 96-well plates and incubated for 24 h with different concentrations (30–200 μM) of compounds. After incubation, 100 μL of the MTT reagent (0.5 mg/mL in DMEM) was added, and the cells were incubated for 3 h at 37 °C. The resulting violet formazan precipitate was dissolved in DMSO and quantified by spectrophotometry at 570 nm using a microplate reader (VANTAstar_BMG LABTECH GmbH, Offenburg, Germany). Viability data were reported in the percentage of control for each compound."}, "[2]": {"biological_target": "electrophorus electricus AChE (Electrophorus electricus, UniProt O42275)", "sequence (O42275 24-633)": "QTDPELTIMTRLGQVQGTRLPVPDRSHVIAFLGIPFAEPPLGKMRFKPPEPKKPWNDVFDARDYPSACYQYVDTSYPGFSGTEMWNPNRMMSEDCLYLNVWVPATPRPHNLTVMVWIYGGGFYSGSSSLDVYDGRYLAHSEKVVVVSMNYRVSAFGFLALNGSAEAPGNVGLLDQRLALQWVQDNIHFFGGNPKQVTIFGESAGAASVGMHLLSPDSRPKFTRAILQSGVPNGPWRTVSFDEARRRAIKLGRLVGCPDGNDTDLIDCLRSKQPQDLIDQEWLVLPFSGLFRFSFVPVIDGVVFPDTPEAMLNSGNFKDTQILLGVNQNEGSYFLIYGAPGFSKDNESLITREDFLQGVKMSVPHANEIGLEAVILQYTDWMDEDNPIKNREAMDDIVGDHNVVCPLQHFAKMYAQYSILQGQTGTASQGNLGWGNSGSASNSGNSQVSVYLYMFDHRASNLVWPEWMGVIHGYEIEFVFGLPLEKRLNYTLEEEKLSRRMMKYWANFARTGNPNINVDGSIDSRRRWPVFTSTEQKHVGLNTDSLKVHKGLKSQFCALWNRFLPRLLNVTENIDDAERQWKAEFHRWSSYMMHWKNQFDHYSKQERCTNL", "assay": "AChE inhibition, Ellman's method", "type": "biochemical", "settings": "for inhibition at 50 µM: read-out: AChE (I %); for AChE (I %): inhibition at 50 µM", "description": "The potential effects of the synthesized compounds 4a–4i and 5a–5i on AChE and BChE were performed using electrophorus electricus AChE and equine serum BChE due to their low cost and high degree of similarity with their respective human enzymes. For the first screenings, they are excellent and widely used in vitro models.\nAChE (EC EC 3.1.1.7) from electrophorus electricus and equine serum BChE (EC 3.1.1.8) were used for the inhibitory assays. ChE inhibitory activity was evaluated using Ellman’s method, as previously described, with slight modifications. The reaction mixture was prepared by dissolving acetylthiocholine iodide (1.5 mM), 5,5’-dithiobis-2-nitrobenzoate (DTNB) (1.5 mM) and the inhibitor (at the desired concentrations) or DMSO alone (control) in 0.1 M phosphate buffer (pH 8.0) to a final volume of 200 µL. The enzyme was added to the reaction mixture and the absorbance was monitored at 405 nm as soon as it was added. This test is based on the AChE enzyme hydrolyzing acetylthiocholine to produce acetate and thiocholine. Thiocholine reacts with DTNB to produce a yellow-colored anion. For the BChE assay, we followed the same procedures as above but used BChE as the enzyme and S-butyrylthiocholine chloride (BTCI) as the substrate. […] Galantamine is considered as a positive control under the same experimental conditions."}, "[3]": {"biological_target": "T1, equine serum BChE (Equus caballus, UniProt P81908)", "T1 construct": "from tissue; host or cells: equine serum", "T1 sequence (P81908 whole entry)": "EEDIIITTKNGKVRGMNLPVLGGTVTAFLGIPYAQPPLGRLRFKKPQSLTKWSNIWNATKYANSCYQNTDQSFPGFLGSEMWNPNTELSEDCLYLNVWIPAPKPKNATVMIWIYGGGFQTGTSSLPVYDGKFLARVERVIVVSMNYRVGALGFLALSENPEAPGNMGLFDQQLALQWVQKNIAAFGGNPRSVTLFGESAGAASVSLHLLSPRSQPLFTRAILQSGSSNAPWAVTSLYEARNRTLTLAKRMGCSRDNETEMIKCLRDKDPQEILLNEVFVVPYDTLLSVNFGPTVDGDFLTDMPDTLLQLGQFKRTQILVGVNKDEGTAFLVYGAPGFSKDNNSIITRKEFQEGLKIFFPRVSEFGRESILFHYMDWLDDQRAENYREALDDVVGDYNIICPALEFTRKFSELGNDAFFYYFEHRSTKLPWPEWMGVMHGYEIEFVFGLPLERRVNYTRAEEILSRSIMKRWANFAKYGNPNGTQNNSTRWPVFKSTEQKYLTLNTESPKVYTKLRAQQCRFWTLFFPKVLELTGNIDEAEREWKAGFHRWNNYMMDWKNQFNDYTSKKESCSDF", "assay": "biochemical", "settings": "for inhibition at 50 µM: read-out: BChE (I %); for BChE (I %): inhibition at 50 µM", "description": "AChE (EC EC 3.1.1.7) from electrophorus electricus and equine serum BChE (EC 3.1.1.8) were used for the inhibitory assays. ChE inhibitory activity was evaluated using Ellman’s method, as previously described, with slight modifications. The reaction mixture was prepared by dissolving acetylthiocholine iodide (1.5 mM), 5,5’-dithiobis-2-nitrobenzoate (DTNB) (1.5 mM) and the inhibitor (at the desired concentrations) or DMSO alone (control) in 0.1 M phosphate buffer (pH 8.0) to a final volume of 200 µL. The enzyme was added to the reaction mixture and the absorbance was monitored at 405 nm as soon as it was added. This test is based on the AChE enzyme hydrolyzing acetylthiocholine to produce acetate and thiocholine. Thiocholine reacts with DTNB to produce a yellow-colored anion. For the BChE assay, we followed the same procedures as above but used BChE as the enzyme and S-butyrylthiocholine chloride (BTCI) as the substrate."}, "[4]": {"assay": "Solubility in DMSO", "type": "physicochemical"}},
  "data": [
    {"smiles": "O=C(c1ccc(O)cc1)c1c(-c2ccc(O)cc2)sc2ccccc12", "note": "[Compound 5i, 3-(4-hydroxybenzoyl)-2-(4-hydroxyphenyl)benzothiophene]", "values": [
      {"measurement": "cytotoxic effects on cell viability", "setting": "[1]", "result": "no cytotoxic effects"},
      {"measurement": "inhibition at 50 µM", "setting": "[2]", "result": 19.3, "unit": "%"},
      {"measurement": "IC50", "setting": "[3]", "result": "59.6 ± 11.6", "unit": "µM"},
      {"measurement": "inhibition at 50 µM", "setting": "[3]", "result": 42.2, "unit": "%"}
    ]},
    {"smiles": "c1ccc(-c2cc3ccccc3s2)cc1", "note": "[Compound 4a, 2-Phenylbenzothiophene]", "values": [
      {"measurement": "solubility in dimethyl sulfoxide (DMSO)", "setting": "[4]", "result": "insoluble"},
      {"measurement": "AChE (I %)", "setting": "[2]", "result": "Ins."},
      {"measurement": "BChE (I %)", "setting": "[3]", "result": "Ins."}
    ]},
    {"smiles": "O=C(c1ccc([N+](=O)[O-])cc1)c1c(-c2ccc([N+](=O)[O-])cc2)sc2ccccc12", "note": "[Compound 5b, 3-(4-Nitrobenzoyl)-2-(4-nitrophenyl)benzothiophene]", "values": [
      {"measurement": "inhibition at 50 µM", "setting": "[2]", "result": 11, "unit": "%"},
      {"measurement": "inhibition at 50 µM", "setting": "[3]", "result": 16.8, "unit": "%"}
    ]},
    {"smiles": "N#Cc1ccc(-c2cc3ccccc3s2)cc1", "note": "[Compound 4d, 4-(Benzothiophene-2-yl)benzonitrile]", "values": [
      {"measurement": "solubility in dimethyl sulfoxide (DMSO)", "setting": "[4]", "result": "insoluble"},
      {"measurement": "AChE (I %)", "setting": "[2]", "result": "Ins."},
      {"measurement": "BChE (I %)", "setting": "[3]", "result": "Ins."}
    ]},
    {"smiles": "O=C(c1ccc(C(F)(F)F)cc1)c1c(-c2ccc(C(F)(F)F)cc2)sc2ccccc12", "note": "[Compound 5e, 3-(4-Trifluoromethylbenzoyl)-2-(4-trifluoromethylphenil)benzothiophene]", "values": [
      {"measurement": "inhibition at 50 µM", "setting": "[2]", "result": 10, "unit": "%"},
      {"measurement": "inhibition at 50 µM", "setting": "[3]", "result": 3.1, "unit": "%"}
    ]},
    {"smiles": "COc1ccc(C(=O)c2c(-c3ccc(OC)cc3)sc3ccccc23)cc1", "note": "[Compound 5c, 3-(4-Methoxybenzoyl)-2-(4-methoxyphenyl)benzothiophene]", "values": [
      {"measurement": "inhibition at 50 µM", "setting": "[2]", "result": 3.5, "unit": "%"},
      {"measurement": "inhibition at 50 µM", "setting": "[3]", "result": 11.9, "unit": "%"}
    ]},
    {"smiles": "Nc1ccc(C(=O)c2c(-c3ccc(N)cc3)sc3ccccc23)cc1", "note": "[Compound 5h, 3-(4-aminobenzoyl)-2-(4-aminophenyl)benzothiophene]", "values": [
      {"measurement": "cytotoxic effects on cell viability", "setting": "[1]", "result": "no cytotoxic effects"},
      {"measurement": "IC50", "setting": "[3]", "result": "24.3 ± 0.5", "unit": "µM"},
      {"measurement": "inhibition at 50 µM", "setting": "[3]", "result": 58.3, "unit": "%"}
    ]},
    {"smiles": "Nc1ccc(-c2cc3ccccc3s2)cc1", "note": "[Compound 4h, 2-(4-aminophenyl)benzothiophene]", "values": [
      {"measurement": "inhibition at 50 µM", "setting": "[3]", "result": 10.2, "unit": "%"}
    ]},
    {"smiles": "O=C(c1ccc(Cl)cc1)c1c(-c2ccc(Cl)cc2)sc2ccccc12", "note": "[Compound 5f, 3-(4-Chlorobenzoyl)-2-(4-chlorophenyl)benzothiophene]", "values": [
      {"measurement": "cytotoxic effects on cell viability", "setting": "[1]", "result": "no cytotoxic effects"},
      {"measurement": "IC50", "setting": "[2]", "result": "62.1 ± 1.2", "unit": "µM"},
      {"measurement": "inhibition at 50 µM", "setting": "[2]", "result": 39.9, "unit": "%"},
      {"measurement": "inhibition at 50 µM", "setting": "[3]", "result": 23.1, "unit": "%"}
    ]},
    {"smiles": "O=[N+]([O-])c1ccc(-c2cc3ccccc3s2)cc1", "note": "[Compound 4b, 2-(4-Nitrophenyl)benzothiophene]", "values": [
      {"measurement": "inhibition at 50 µM", "setting": "[2]", "result": 8.2, "unit": "%"},
      {"measurement": "inhibition at 50 µM", "setting": "[3]", "result": 2.29, "unit": "%"}
    ]},
    {"smiles": "N#Cc1ccc(C(=O)c2c(-c3ccc(C#N)cc3)sc3ccccc23)cc1", "note": "[Compound 5d, 4-Cianophenyl-[2-(4-cianophenyl)-benzothiophen-3-yl]-methanone]", "values": [
      {"measurement": "inhibition at 50 µM", "setting": "[2]", "result": 4.5, "unit": "%"},
      {"measurement": "inhibition at 50 µM", "setting": "[3]", "result": 14, "unit": "%"}
    ]},
    {"smiles": "Cc1ccc(-c2cc3ccccc3s2)cc1", "note": "[Compound 4g, 2-(4-Methylphenyl)benzothiophene]", "values": [
      {"measurement": "solubility in dimethyl sulfoxide (DMSO)", "setting": "[4]", "result": "insoluble"},
      {"measurement": "AChE (I %)", "setting": "[2]", "result": "Ins."},
      {"measurement": "BChE (I %)", "setting": "[3]", "result": "Ins."}
    ]},
    {"smiles": "Oc1ccc(-c2cc3ccccc3s2)cc1", "note": "[Compound 4i, 2-(4-hydroxyphenyl)benzothiophene]", "values": [
      {"measurement": "inhibition at 50 µM", "setting": "[2]", "result": 8.19, "unit": "%"},
      {"measurement": "inhibition at 50 µM", "setting": "[3]", "result": 13.6, "unit": "%"}
    ]},
    {"smiles": "Clc1ccc(-c2cc3ccccc3s2)cc1", "note": "[Compound 4f, 2-(4-Chlorophenyl)benzothiophene]", "values": [
      {"measurement": "solubility in dimethyl sulfoxide (DMSO)", "setting": "[4]", "result": "insoluble"},
      {"measurement": "AChE (I %)", "setting": "[2]", "result": "Ins."},
      {"measurement": "BChE (I %)", "setting": "[3]", "result": "Ins."}
    ]},
    {"smiles": "Cc1ccc(C(=O)c2c(-c3ccc(C)cc3)sc3ccccc23)cc1", "note": "[Compound 5g, 3-(4-Methylbenzoyl)-2-(4-methylphenyl)benzothiophene]", "values": [
      {"measurement": "inhibition at 50 µM", "setting": "[2]", "result": 28.3, "unit": "%"},
      {"measurement": "inhibition at 50 µM", "setting": "[3]", "result": 13.1, "unit": "%"}
    ]},
    {"smiles": "FC(F)(F)c1ccc(-c2cc3ccccc3s2)cc1", "note": "[Compound 4e, 2-(4-Trifluoromethylphenyl)benzothiophene]", "values": [
      {"measurement": "solubility in dimethyl sulfoxide (DMSO)", "setting": "[4]", "result": "insoluble"},
      {"measurement": "AChE (I %)", "setting": "[2]", "result": "Ins."},
      {"measurement": "BChE (I %)", "setting": "[3]", "result": "Ins."}
    ]},
    {"smiles": "O=C(c1ccccc1)c1c(-c2ccccc2)sc2ccccc12", "note": "[Compound 5a, 3-Benzoyl-2-phenylbenzothiophene]", "values": [
      {"measurement": "cytotoxic effects on cell viability", "setting": "[1]", "result": "no cytotoxic effects"},
      {"measurement": "inhibition at 50 µM", "setting": "[2]", "result": 20.8, "unit": "%"},
      {"measurement": "IC50", "setting": "[3]", "result": "83.4 ± 1.2", "unit": "µM"},
      {"measurement": "inhibition at 50 µM", "setting": "[3]", "result": 35.7, "unit": "%"}
    ]},
    {"smiles": "COc1ccc(-c2cc3ccccc3s2)cc1", "note": "[Compound 4c, 2-(4-Methoxyphenyl)benzothiophene]", "values": [
      {"measurement": "inhibition at 50 µM", "setting": "[2]", "result": 9.6, "unit": "%"},
      {"measurement": "inhibition at 50 µM", "setting": "[3]", "result": 1.2, "unit": "%"}
    ]}
  ]
}
